Test results taken from ChEMBL document CHEMBL3217615, “Novel 3,5-bis(arylidiene)-4-piperidone based monocarbonyl analogs of curcumin: anticancer activity evaluation and mode of action study” (2014).

Experiments:
Format in all cases: functional
[1] = Growth inhibition of human BT549 cells after 48 hrs by sulforhodamine B assay; settings: BT-549, 48 h
[2] = tested on: Malme-3M; assay: Growth inhibition of human MALME-3M cells assessed as cell growth at 10^-6 M after 48 hrs by sulforhodamine B assay; settings: read-out: Activity
[3] = tested on: U-251; assay: Growth inhibition of human U251 cells assessed as cell growth at 10^-6 M after 48 hrs by sulforhodamine B assay; settings: U-251, 48 h, read-out: Activity
[4] = tested on: HL-60(TB); assay: Growth inhibition of human HL-60(TB) cells assessed as cell growth at 10^-6 M after 48 hrs by sulforhodamine B assay; settings: HL-60, 48 h, read-out: Activity
[5] = Growth inhibition of human BT549 cells assessed as cell growth at 10^-7 M after 48 hrs by sulforhodamine B assay; settings: BT-549, 48 h, read-out: Activity
[6] = tested on: PC-3; assay: Growth inhibition of human PC3 cells assessed as cell growth at 10^-7 M after 48 hrs by sulforhodamine B assay; settings: PC-3, 48 h, read-out: Activity
[7] = Growth inhibition of human UO31 cells assessed as cell growth at 10^-7 M after 48 hrs by sulforhodamine B assay; settings: UO-31, 48 h, read-out: Activity
[8] = tested on: CAKI-1; assay: Growth inhibition of human CAKI-1 cells assessed as cell growth at 10^-7 M after 48 hrs by sulforhodamine B assay; settings: CAKI-1, 48 h, read-out: Activity
[9] = tested on: A498; assay: Growth inhibition of human A498 cells assessed as cell growth at 10^-7 M after 48 hrs by sulforhodamine B assay; settings: A498, 48 h, read-out: Activity
[10] = tested on: SK-MEL-2; assay: Growth inhibition of human SK-MEL-2 cells assessed as cell growth at 10^-5 M after 48 hrs by sulforhodamine B assay; settings: SK-MEL-2, 48 h, read-out: Activity
[11] = tested on: A498; assay: Growth inhibition of human A498 cells assessed as cell growth at 10^-6 M after 48 hrs by sulforhodamine B assay; settings: A498, 48 h, read-out: Activity
[12] = Growth inhibition of human NCI-ADR-RES cells assessed as cell growth at 10^-6 M after 48 hrs by sulforhodamine B assay; settings: read-out: Activity
[13] = tested on: SK-OV-3; assay: Growth inhibition of human SKOV3 cells assessed as cell growth at 10^-4 M after 48 hrs by sulforhodamine B assay; settings: SK-OV-3, 48 h, read-out: Activity
[14] = tested on: NCI-H460; assay: Growth inhibition of human NCI-H460 cells assessed as cell growth at 10^-4 M after 48 hrs by sulforhodamine B assay; settings: NCI-H460, 48 h, read-out: Activity
[15] = Growth inhibition of human UACC257 cells assessed as cell growth at 10^-8 M after 48 hrs by sulforhodamine B assay; settings: UACC-257, 48 h
[16] = tested on: U-251; assay: Growth inhibition of human U251 cells assessed as cell growth at 10^-8 M after 48 hrs by sulforhodamine B assay; settings: U-251, 48 h
[17] = tested on: SNB-75; assay: Growth inhibition of human SNB75 cells assessed as cell growth at 10^-8 M after 48 hrs by sulforhodamine B assay; settings: SNB-75, 48 h
[18] = tested on: SR; assay: Growth inhibition of human SR cells assessed as cell growth at 10^-8 M after 48 hrs by sulforhodamine B assay
[19] = tested on: HL-60(TB); assay: Growth inhibition of human HL-60(TB) cells assessed as cell growth at 10^-8 M after 48 hrs by sulforhodamine B assay; settings: HL-60, 48 h
[20] = tested on: SN12C; assay: Growth inhibition of human SN12C cells after 48 hrs by sulforhodamine B assay
[21] = Growth inhibition of human HCC2998 cells after 48 hrs by sulforhodamine B assay; settings: HCC 2998, 48 h
[22] = tested on: NCI-H522; assay: Growth inhibition of human NCI-H522 cells after 48 hrs by sulforhodamine B assay; settings: NCI-H522, 48 h
[23] = tested on: NCI-H460; assay: Growth inhibition of human NCI-H460 cells after 48 hrs by sulforhodamine B assay; settings: NCI-H460, 48 h
[24] = tested on: HOP-62; assay: Growth inhibition of human HOP62 cells after 48 hrs by sulforhodamine B assay; settings: HOP-62, 48 h
[25] = tested on: MDA-MB-468; assay: Growth inhibition of human MDA-MB-468 cells assessed as cell growth at 10^-4 M after 48 hrs by sulforhodamine B assay; settings: MDA-MB-468, 48 h, read-out: Activity
[26] = tested on: T47D; assay: Growth inhibition of human T47D cells assessed as cell growth at 10^-4 M after 48 hrs by sulforhodamine B assay; settings: read-out: Activity
[27] = tested on: MCF7; assay: Growth inhibition of human MCF7 cells assessed as cell growth at 10^-4 M after 48 hrs by sulforhodamine B assay; settings: MCF7, 48 h, read-out: Activity
[28] = Growth inhibition of human UACC62 cells assessed as cell growth at 10^-7 M after 48 hrs by sulforhodamine B assay; settings: UACC-62, 48 h, read-out: Activity
[29] = tested on: SK-MEL-28; assay: Growth inhibition of human SK-MEL-28 cells assessed as cell growth at 10^-7 M after 48 hrs by sulforhodamine B assay; settings: SK-MEL-28, 48 h, read-out: Activity
[30] = tested on: MDA-MB-435; assay: Growth inhibition of human MDA-MB-435 cells assessed as cell growth at 10^-7 M after 48 hrs by sulforhodamine B assay; settings: MDA-MB-435, 48 h, read-out: Activity
[31] = Growth inhibition of human SF539 cells assessed as cell growth at 10^-7 M after 48 hrs by sulforhodamine B assay; settings: SF-539, 48 h, read-out: Activity
[32] = tested on: KM12; assay: Growth inhibition of human KM12 cells assessed as cell growth at 10^-7 M after 48 hrs by sulforhodamine B assay; settings: KM12, 48 h, read-out: Activity
[33] = tested on: ACHN; assay: Growth inhibition of human ACHN cells assessed as cell growth at 10^-8 M after 48 hrs by sulforhodamine B assay
[34] = read-out: LC50 (the source's name)

Cc1ccc(S(=O)(=O)N2C/C(=C\c3cc(F)cc(F)c3)C(=O)/C(=C/c3cc(F)cc(F)c3)C2)cc1
GI50 [1]: 0.34 µM | LC50 [1]: 3.52 µM | TGI [1]: 0.931 µM | growth at 1 µM [2]: -15% | growth at 1 µM [3]: -31% | growth at 1 µM [4]: 4% | growth at 0.1 µM [5]: 111% | growth at 0.1 µM [6]: 89% | growth at 0.1 µM [7]: 94% | growth at 0.1 µM [8]: 94% | growth at 0.1 µM [9]: 93% | growth at 10 µM [10]: -44% | growth at 1 µM [11]: 91% | growth at 1 µM [12]: 19% | growth at 100 µM [13]: -68% | growth at 100 µM [14]: -72% | GI50 [15]: 0.933 µM | LC50 [15]: 8.51 µM | growth at 0.01 µM ([15]; read-out: Activity): 93% | TGI ([15]; read-out: pTGI (converted)): 2.88 µM | GI50 [16]: 0.186 µM | LC50 [16]: 2.04 µM | growth at 0.01 µM ([16]; read-out: Activity): 94% | TGI ([16]; read-out: pTGI (converted)): 0.525 µM | GI50 [17]: 2 µM | LC50 [17]: 26.3 µM | growth at 0.01 µM ([17]; read-out: Activity): 88% | TGI ([17]; read-out: pTGI (converted)): 5.89 µM | GI50 [18]: 0.0347 µM | LC50 [18]: > 100 µM | growth at 0.01 µM ([18]; read-out: Activity): 93% | TGI ([18]; read-out: pTGI (converted)): 0.251 µM | GI50 [19]: 0.288 µM | growth at 0.01 µM ([19]; read-out: Activity): 116% | CC50 ([19]; read-out: pLC50 (the source's name) (converted)): > 100 µM | TGI ([19]; read-out: pTGI (converted)): 1.74 µM | GI50 [20]: 0.342 µM | TGI [20]: 1.31 µM | CC50 [20, 34]: 4.26 µM | GI50 [21]: 0.602 µM | TGI [21]: 1.91 µM | CC50 [21, 34]: 4.85 µM | GI50 [22]: 0.316 µM | TGI [22]: 0.962 µM | CC50 [22, 34]: 3.85 µM | GI50 [23]: 0.828 µM | TGI [23]: 2.87 µM | CC50 [23, 34]: 9.22 µM | GI50 [24]: 2.04 µM | TGI [24]: 4.64 µM | CC50 [24, 34]: 11.9 µM | growth at 100 µM [25]: -79% | growth at 100 µM [26]: -61% | growth at 100 µM [27]: -72% | growth at 0.1 µM [28]: 93% | growth at 0.1 µM [29]: 93% | growth at 0.1 µM [30]: 92% | growth at 0.1 µM [31]: 93% | growth at 0.1 µM [32]: 103% | GI50 [33]: 0.245 µM | LC50 [33]: 2.4 µM | growth at 0.01 µM ([33]; read-out: Activity): 101% | TGI ([33]; read-out: pTGI (converted)): 0.617 µM
